Measured values reported in paper PMC9863607, “Combined Use of Antimicrobial Peptides with Antiseptics against Multidrug-Resistant Bacteria: Pros and Cons” (Pharmaceutics, 2023).
Like-named read-outs stand apart in the source and are kept apart here. Peptide text beside a SMILES is read from it.

Legend:
E. coli ESBL 521/17 = test: microbe, parasite or virus in culture; format: cell-based, Escherichia coli
Procedure: (§1) In this regard the test plates were preincubated for 1 h at 37 °C with 0.1% bovine serum albumin (BSA) in distilled water before use. Bacteria were grown overnight at 37 °C with shaking in 2.1% Müller–Hinton broth (MHB), and then a small aliquot was transferred into the fresh portion of the same medium for another 2–3 h on the day of the experiment to provide us with the log phase bacterial suspension. Concentration of bacterial cells in suspension was evaluated based on absorbance at 620 nm and diluted down to 1 × 10^6 CFU/mL with MHB. Equal volumes of the prepared bacterial suspension in MHB and two-fold serial dilutions of the antimicrobials in 10 mM sodium phosphate (Na-P) buffer (pH 7.4) with 0.1% BSA were mixed and incubated overnight at 37 °C. The lowest concentration where no bacterial growth was observed the next day under visual examination was considered the minimal inhibitory concentration. The test was repeated at least three times, and the final MIC value was established as a median result. Each experiment was conducted in triplicates. Terasaki microplates (10 µL end volume, V-shaped bottom; Sarstedt, Nümbrecht, Germany) were used.

P. aeruginosa MDR 522/17 [1] = test: microbe, parasite or virus in culture; format: cell-based, Pseudomonas aeruginosa
Procedure: as §1

P. aeruginosa MDR 522/17 [2] = test: Crystal violet assay of biofilm formation; format: cell-based, Pseudomonas aeruginosa; conditions: median of 3 independent experiments; for MECBF partially inhibiting bacterial biofilms: minimal concentration with significant decrease vs intact control (Mann–Whitney, p < 0.05), 24 h, 37 °C, MHB; for Minimal FECI, AMP + CAPB, biofilm formation: combination with cocamidopropyl betaine; for Minimal FECI, AMP + CAPB, biofilm formation / Minimal FECI, AMP + DXD, biofilm formation / Minimal FECI, AMP + ETA, biofilm formation / Minimal FECI, AMP + PVG, biofilm formation / Minimal FECI, AMP + PTS, biofilm formation: sub-microbicidal concentrations; for Minimal FECI, AMP + DXD, biofilm formation: combination with dioxydin; for Minimal FECI, AMP + ETA, biofilm formation: combination with etidronic acid; for Minimal FECI, AMP + PVG, biofilm formation: combination with poviargolum; for Minimal FECI, AMP + PTS, biofilm formation: combination with prontosan
Procedure: The impact of the tested antimicrobials and their combinations on the formation of biofilms was quantitated as per the crystal violet assay protocol published by Merritt et al.. Testing was performed in 96-well immunological plates with U-shaped bottoms. […] Experimental samples were quadruplicated, and control without antimicrobials was octuplicated.
Then, the liquid content of the test plates was discarded, and the plates were gently washed in still water from residual traces of unattached planktonic bacteria. Each well was supplied with 125 μL 0.1% aqueous solution of crystal violet dye for 10 min at room temperature to stain biofilm components left attached to the surface. After staining, the plates were washed with clear water once more to remove excessive dye and left to air-dry. To quantify the amount of the bound dye corresponding to the thickness of the formed biofilm, it was redissolved in 30% acetic acid, 200 μL of which was introduced into each well. After 15 min at room temperature, the content of the wells was mixed by repetitive pipetting to ensure complete dye extraction, and 125 μL of each sample was transferred well-by-well into 96-well clear flat-bottom plates for spectrophotometric examination. OD was measured at 580 nm. Final results were calculated as medians based on three independent experiments.
Analyzing the combined action of AMPs and antiseptics (AS) in sub-microbicidal concentrations toward biofilms, we adopted the same approach based on the calculation of fractional indices as the one we used while testing antimicrobial activity on planktonic bacteria. For combinations, the series of concentrations from [MECBF(AMP) + MECBF(AS)], [½MECBF(AMP) + ½MECBF(AS)] and down to [1/32 × MECBF(AMP) + 1/32 × MECBF(AS)] was analyzed. […] The minimal FECI > 4 was interpreted as antagonism, FECI ≤ 0.5 as synergy, 0.5 < FECI ≤ 1 as additivity, and 1 < FECI ≤ 4 as independent action.

[3] = system: normal human dermal fibroblasts; test: MTT test and/or direct cell count by light microscopy; conditions: for FECI, toxicity toward fibroblasts: assessed from the ½+½ and ¼+¼ MEC combinations
From the text: Potential cytotoxic effects of the test substances and their combinations toward human dermal fibroblasts were observed using a MTT dye [3-(4,5-dimethylthiazol-2-yl)-2,5-diphenyltetrazolium bromide]-based test first proposed by Mosmann. MTT basically functions on the same principle as resazurin: it is reduced in metabolically active cells to the product named formazan, which differs from MTT by its properties. While MTT is yellow, formazan is blue and water-insoluble. Normal human fibroblasts initially obtained from the Pokrovsky Stem Cell Bank (Saint Petersburg, Russia) were cultured at 37 °C and 5% CO2 in DMEM medium supplemented with 10% fetal bovine serum, glutamine, and Pen-Strep. The day before, experiment cells were detached from the culture flasks using Trypsin-Versene reagent, collected into a sterile 15 mL tube, centrifuged for 10 min at 300× g to discard the previous medium, and resuspended in serum-, glutamine-, and antibiotic-free DMEM. Cells were counted using a hemocytometer; their concentration was adjusted, and they were distributed at 10,000–15,000 cells per well in 90 µL in a 96-well sterile treated flat-bottom plate and left at 37 °C and 5% CO2 overnight to properly adhere. The following day, their well-being was visually checked using an inverted light microscope, and the wells were supplied with 10 µL of the test substances or their combinations in DMEM in 10 times the final desired concentrations. Experimental samples were made in triplicates. […] At least six repeats of each type of the control samples were made. Test plates were incubated at 37 °C and 5% CO2 overnight, and 10 µL of the 5 mg/mL MTT in PBS were introduced into each well the next morning. After another 4 h of incubation at the same conditions, formed formazan crystals were dissolved by adding 110 µL of isopropanol containing 0.04 M HCl (the latter is used to “switch” phenol red pH indicator in DMEM from red to yellow). Then, each sample was thoroughly mixed by repetitive pipetting, and formazan concentration was spectrophotometrically evaluated measuring OD at 540 nm with subtraction of the background at 690 nm.
We resorted to the direct cell count in case the MTT test was not applicable or required verification of some sort. This idea was borrowed from the crystal violet assay for determining viability of cultured cells and is based on the fact that, once dead, adherent cells detach from the surface. Since we were not aiming to analyze a large number of samples in this manner, we simply skipped the staining step of the crystal violet assay, which is also slightly difficult and brings a risk of detaching cells during washing. We proceeded with the same protocol as for the MTT test down to the step of adding MTT dye. Then, instead, we used an inverted light microscope (magnification ×500) to calculate the number of attached cells in 10 fields of view in each experimental well of interest and compared it with the count for the 100% viability control wells. The exact effect was evaluated as viable cells (%) = mean number of adhered cells in a sample / mean number of adhered cells in 100% viability control × 100%.
While analyzing toxicity toward eukaryotic cells, components were mixed in concentrations of ½ MEC (AMP) + ½ MEC (AS) (that can provide the fractional index = 1, denoting additivity, if found effective) and ¼ MEC (AMP) + ¼ MEC (AS) (that can provide the fractional index = 0.5, denoting synergy, if found effective).
Cytotoxic effects of individual substances and their combinations were also evaluated against cultured normal human dermal fibroblasts. We used MTT tests and/or light microscopy for the direct cell count.

[4] = antiseptics and surfactants, MHB, overnight 37 °C, median of 3–4 independent experiments, prontosan as polyhexanide
[5] = antiseptics and surfactants, serum-free DMEM, overnight, median of 3 independent experiments, prontosan as polyhexanide, etidronic acid primarily by direct cell count

Compound	MIC (E. coli ESBL 521/17; [4])	MIC (P. aeruginosa MDR 522/17 [1]; [4])	MECBF partially inhibiting bacterial biofilms (P. aeruginosa MDR 522/17 [2])	MECF [3]	MECF of cytotoxic action toward normal human dermal fibroblasts [3, 5] [µg/mL]	MIC (E. coli ESBL 521/17; ESBL 521/17, 1 h) [µM]	MIC (P. aeruginosa MDR 522/17 [1]; MDR 522/17, 1 h) [µM]	Minimal FECI, AMP + CAPB, biofilm formation (P. aeruginosa MDR 522/17 [2])	Minimal FECI, AMP + DXD, biofilm formation (P. aeruginosa MDR 522/17 [2])	Minimal FECI, AMP + ETA, biofilm formation (P. aeruginosa MDR 522/17 [2])	Minimal FECI, AMP + PVG, biofilm formation (P. aeruginosa MDR 522/17 [2])	Minimal FECI, AMP + PTS, biofilm formation (P. aeruginosa MDR 522/17 [2])	also measured
[O-][n+]1c(CO)c(CO)[n+]([O-])c2ccccc21 [Dioxydin]	15.6 µg/mL	125 µg/mL	1/16	0.5 mg/mL	500								
CC(O)(P(=O)(O)O)P(=O)(O)O [Etidronic acid]			1/32	less than 2.5 mg/mL	<2500								MIC (E. coli ESBL 521/17; Escherichia coli, ESBL521/17, antiseptics and surfactants, MHB, overnight 37 °C, median of 3–4 independent experiments, prontosan as polyhexanide, read-out: MIC): 50000 µg/mL; MIC (P. aeruginosa MDR 522/17 [1]; Pseudomonas aeruginosa, MDR522/17, antiseptics and surfactants, MHB, overnight 37 °C, median of 3–4 independent experiments, prontosan as polyhexanide, read-out: MIC): 25000 µg/mL; Cytotoxic effect toward human dermal fibroblasts ([3]; at 2.5 mg/mL): higher than 50%
Cocamidopropyl betaine	>50,000 µg/mL	>50,000 µg/mL	1/512		12.5								
CC[C@H](C)[C@H](NC(=O)[C@H](CCCNC(=N)N)NC(=O)[C@@H](NC(=O)[C@@H]1CCCN1C(=O)[C@@H]1CCCN1C(=O)[C@H](CCCNC(=N)N)NC(=O)[C@H](CCCNC(=N)N)NC(=O)[C@H](Cc1ccccc1)NC(=O)[C@@H]1CCCN1C(=O)[C@H](CC(C)C)NC(=O)[C@H](CCCNC(=N)N)NC(=O)[C@H](Cc1ccccc1)NC(=O)[C@@H](N)CCCNC(=N)N)[C@@H](C)CC)C(=O)N[C@@H](Cc1c[nH]cn1)C(=O)N1CCC[C@H]1C(=O)N1CCC[C@H]1C(=O)N1CCC[C@H]1C(=O)N[C@@H](Cc1ccccc1)C(=O)N[C@@H](Cc1ccc(O)cc1)C(=O)N1CCC[C@H]1C(=O)N1CCC[C@H]1C(=O)N[C@@H](Cc1ccccc1)C(=O)N[C@@H](CCCNC(=N)N)C(=O)N[C@@H](CCCNC(=N)N)C(=O)N[C@@H](Cc1ccccc1)C(=O)N[C@@H](CC(C)C)C(=O)O [ChBac3.4] (H-RFRLPFRRPPIRIHPPPFYPPFRRFL-OH; N-terminus assumed)			1/64			3.1	6.2	0.5	1.12	2	1	0.12	MECF of cytotoxic action toward normal human dermal fibroblasts [3]: 40 µM
CC(C)C[C@H](NC(=O)[C@H](CCCNC(=N)N)NC(=O)CNC(=O)CNC(=O)[C@@H](N)CCCNC(=N)N)C(=O)N[C@H]1CSSC[C@@H](C(=O)N[C@H](C(=O)NCC(=O)N[C@@H](CCCNC(=N)N)C(N)=O)C(C)C)NC(=O)[C@H](C(C)C)NC(=O)[C@@H]2CSSC[C@H](NC(=O)[C@H](Cc3ccc(O)cc3)NC1=O)C(=O)N[C@@H](CCCNC(=N)N)C(=O)N[C@@H](CCCNC(=N)N)C(=O)N[C@@H](CCCNC(=N)N)C(=O)N[C@@H](Cc1ccccc1)C(=O)N2 [PG-1, protegrin 1]			1/64			0.4	6.2	0.12	1	2	0.25	0.12	FECI, toxicity toward fibroblasts ([3]; B = cocamidopropyl betaine): 1.0; Toxicity of (¼ MEC A + ¼ MEC B) toward human dermal fibroblasts ([3]; B = cocamidopropyl betaine, experiment 1 of 3 (1st symbol)): +; Toxicity of (¼ MEC A + ¼ MEC B) toward human dermal fibroblasts ([3]; B = cocamidopropyl betaine, experiment 2 of 3 (2nd symbol)): −; Toxicity of (¼ MEC A + ¼ MEC B) toward human dermal fibroblasts ([3]; B = cocamidopropyl betaine, experiment 3 of 3 (3rd symbol)): −; Toxicity of (¼ MEC A + ¼ MEC B) toward human dermal fibroblasts ([3]; B = cocamidopropyl betaine, overall result of 3 independent experiments (square brackets)): −; FECI, toxicity toward fibroblasts ([3]; B = dioxydin): >1.0; FECI, toxicity toward fibroblasts ([3]; B = poviargolum): 1.0; Toxicity of (¼ MEC A + ¼ MEC B) toward human dermal fibroblasts ([3]; B = poviargolum, experiment 1 of 3 (1st symbol)): +; Toxicity of (¼ MEC A + ¼ MEC B) toward human dermal fibroblasts ([3]; B = poviargolum, experiment 2 of 3 (2nd symbol)): −; Toxicity of (¼ MEC A + ¼ MEC B) toward human dermal fibroblasts ([3]; B = poviargolum, experiment 3 of 3 (3rd symbol)): −; Toxicity of (¼ MEC A + ¼ MEC B) toward human dermal fibroblasts ([3]; B = poviargolum, overall result of 3 independent experiments (square brackets)): −; FECI, toxicity toward fibroblasts ([3]; B = prontosan): 1.0; Magnitude of toxic effect toward human dermal fibroblasts ([3]; at 20 μM): higher than 50%
